The structures appear in SMILES notation. Where two headings read alike, the source gives them in different places. Non-standard residues stand in square brackets, D forms with d. Residues, ends and D or L forms follow the SMILES beside them. Tle = CC(C)(C)[C@H](N)C(=O)O

Assay [1] has as its target T1, Protein S/APC cofactor activity (Homo sapiens, UniProt P07225).
T1 construct: host or cells: plasma
T1 sequence (P07225 41-676 limits assumed): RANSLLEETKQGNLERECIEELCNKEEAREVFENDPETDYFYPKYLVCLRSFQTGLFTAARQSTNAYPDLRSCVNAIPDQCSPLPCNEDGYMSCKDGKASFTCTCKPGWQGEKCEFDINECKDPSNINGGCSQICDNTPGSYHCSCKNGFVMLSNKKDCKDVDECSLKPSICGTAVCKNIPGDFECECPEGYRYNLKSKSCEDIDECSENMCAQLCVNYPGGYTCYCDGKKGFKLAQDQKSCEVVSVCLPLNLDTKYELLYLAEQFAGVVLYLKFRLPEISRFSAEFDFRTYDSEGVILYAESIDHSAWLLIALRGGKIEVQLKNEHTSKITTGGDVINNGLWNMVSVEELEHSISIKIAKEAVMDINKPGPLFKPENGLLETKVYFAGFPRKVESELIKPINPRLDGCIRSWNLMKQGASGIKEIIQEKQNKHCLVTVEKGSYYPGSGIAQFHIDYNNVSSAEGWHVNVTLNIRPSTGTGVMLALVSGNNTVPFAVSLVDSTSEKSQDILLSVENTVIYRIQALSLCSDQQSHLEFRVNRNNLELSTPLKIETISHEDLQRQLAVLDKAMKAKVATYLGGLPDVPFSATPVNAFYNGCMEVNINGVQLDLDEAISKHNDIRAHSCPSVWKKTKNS
Briefly: CAT assay: Protein S/APC-dependent thrombin generation in FVIII-inhibited plasma. Type of assay: biochemical. The conditions noted are these: Protein S-depleted plasma supplemented with APC and Protein S, FVIII-inhibited. The procedure: Peptides also were tested for improvement of Protein S/APC-dependent thrombin generation in hemophilic plasma using a CAT assay. Protein S enhances the anticoagulation of APC in plasma. The CAT assay quantifies the effect of Protein S on APC-mediated thrombin generation initiated via the extrinsic coagulation pathway (Nicolaes, Blood Coagul. Fibrinolysis, 8:28 (1997)). APC (35 nM) and Protein S (25 nM) was added to Protein 5-depleted plasma, and plasma samples were incubated with high titer heat inactivated anti-human FVIII plasma raised in goat (4490 BU/ml; Baxter BioScience, Vienna, Austria; 50 BU/ml final plasma concentration). Thrombin formation in plasma was followed by calibrated automated thrombography (CAT) in a Fluoroskan Ascent® reader (Thermo Labsystems, Helsinki, Finland) and quantified via the thrombin peak-height. Thrombin generation was determined at high tissue factor (TF) concentration in the absence and in the presence of APC at a concentration that reduces the peak height to ˜20%. The inhibitory effect of peptides described herein on the APC cofactor activity of Protein S (PS) in plasma was measured in FVIII-inhibited pooled normal plasma supplemented with APC. Complete (100%) Protein S/APC inhibition is the height of the thrombin peak without addition of APC. Lack of (0%) PS/APC inhibition correlates to the thrombin peak-height value with a certain amount of APC. Peptides were ranked by their normalized values in comparison to the mean of wild-type controls including SD at two defined peptide concentrations (EC50 and EC90).
Exemplary conditions for the CAT assay are as follows. Protein S-depleted plasma was supplemented with 35 nM APC and […]. Stock APC was diluted with 10 pM TF and 15 μM PL. Lyophilized peptides were dissolved in 100% DMSO to a 5 mM stock concentration and further diluted with HNABSA5-buffer+0.1% Tween80. […] In a 96 well Immulon 2HB (transparent), U-bottom (ThermoElectron) plate was mixed 80 μl plasma (+CTI+Z994-5), 10 μl peptide dilution, and 10 μl APC-TF-PL-MIX or Calibrator. Thrombin generation was initiated by dispensing 20 μL of FluCa reagent containing fluorogenic substrate and HEPES-buffered CaCl2 (100 mM) into each well. Fluorescence intensity was recorded at 37° C. using the Fluoroskan Ascent® reader (filters 390 nm excitation and 460 nm emission). The parameters of the resulting thrombin generation curves were calculated using the Thrombinoscope™ software (Thrombinoscope) and thrombin calibrator to correct for inner filter and substrate consumption effects (Hemker, Pathophysiol Haemost Thromb, 33: 415 (2003)).

Another assay has as its target T2, Protein S (Homo sapiens, UniProt P07225).
T2 sequence (P07225 41-676 limits assumed): T1 sequence (P07225 41-676 limits assumed)
Briefly: LANCE IC50 assay (competition TR-FRET) with tracer JBS0684. Format: binding. On the procedure: Peptides also were characterized in a competition, homogenous europium-based TR-FRET assay (LANCE IC50 assay) using JBS0684 as a tracer (i.e., competitor for Protein S binding). The following reagents were mixed together in a Perkin-Elmer ProxiPlate MTP well (indicated concentration is the final concentration): Eu-labeled Protein S (10 nM), Ulight™-labeled Streptavidin (100 nM), tracer (JBS0684 (300 nM)), and peptide (titrated in three-fold dilution steps). The final volume was 50 μl/well. The reaction mix was incubated for 1 hour at room temperature, then the fluorescence emission at 665 nm was recorded on a multi-mode reader (SpectraMax® M5, Molecular Devices) using the following instrument settings: Ex 340 nm, Em 665 nm, delay 50 μsec, integration 100 μsec, reads 100. Binding of tracer peptides to soluble europium-labeled Protein S was detected by Streptavidin labeled with an acceptor fluorophor (ULight™). Inhibition of tracer-binding to Protein S by a non-biotinylated peptide results in a decrease of TR-FRET between the Eu-labeled Protein S and ULight™-labeled Streptavidin. IC50 values were obtained from peptide titration curves at constant tracer concentration using non-linear regression of the fluorescence emission signals at 665 nm.
On the technique in general: In TR-FRET formats the signal depends on donor and acceptor labels being close together.

[2] abbreviates: Table 4, multiple substitutions in JBS2572, read-out: LANCE IC50.

`CC(=O)N[C@H](C(=O)NCC(=O)N[C@@H](Cc1c[nH]cn1)C(=O)N[C@H](C(=O)N[C@@H](CO)C(=O)N[C@@H](C)C(=O)NCC(=O)N[C@@H](Cc1c[nH]c2ccccc12)C(=O)N[C@@H](Cc1ccc(O)cc1)C(=O)N[C@@H](CC(=O)O)C(=O)N[C@@H](Cc1ccc(O)cc1)C(=O)N[C@@H](CC(N)=O)C(=O)N[C@@H](Cc1ccccc1)C(=O)N[C@@H](CC(=O)O)C(=O)N[C@@H](Cc1c[nH]cn1)C(=O)N[C@@H](Cc1ccc(O)cc1)C(=O)N[C@@H](CCCNC(=N)N)C(=O)N[C@@H](CCC(=O)O)C(=O)N[C@@H](Cc1ccccc1)C(=O)N[C@H](C(N)=O)[C@@H](C)O)C(C)C)[C@@H](C)O` [JBS2512] (Ac-TGHVSAGWYDYNFDHYREFT-NH2) registered an EC50 in assay [1] of 24 nM. This lies in the double-digit nanomolar range.
As to `CC(=O)N[C@H](C(=O)NCC(=O)N[C@@H](CC(C)C)C(=O)N[C@H](C(=O)N[C@@H](CCC(=O)O)C(=O)N[C@@H](C)C(=O)NCC(=O)N[C@@H](Cc1c[nH]c2ccccc12)C(=O)N[C@@H](Cc1ccc(O)cc1)C(=O)N[C@@H](CC(=O)O)C(=O)N[C@@H](Cc1ccc(O)cc1)C(=O)N[C@@H](CC(N)=O)C(=O)N[C@@H](Cc1ccccc1)C(=O)N[C@@H](CC(=O)O)C(=O)N[C@H](C(=O)N[C@@H](Cc1ccc(O)cc1)C(=O)N[C@@H](CCCNC(=N)N)C(=O)N[C@@H](CCC(=O)O)C(=O)N[C@@H](Cc1ccccc1)C(=O)N[C@H](C(N)=O)[C@@H](C)O)[C@@H](C)O)C(C)C)[C@@H](C)O` [JBS3192] (Ac-TGLVEAGWYDYNFDTYREFT-NH2), the IC50 at Protein S (setting [2]) stood at 2.8 nM.
With `CC(=O)N[C@H](C(=O)NCC(=O)N[C@@H](CC(C)C)C(=O)N[C@H](C(=O)N[C@@H](CCC(=O)O)C(=O)N[C@@H](C)C(=O)NCC(=O)N[C@@H](Cc1c[nH]c2ccccc12)C(=O)N[C@@H](Cc1ccc(O)cc1)C(=O)N[C@@H](CC(=O)O)C(=O)N[C@@H](Cc1ccc(O)cc1)C(=O)N[C@@H](CC(N)=O)C(=O)N[C@@H](Cc1ccccc1)C(=O)N[C@@H](CC(=O)O)C(=O)N[C@H](C(=O)N[C@@H](Cc1ccc(O)cc1)C(=O)N[C@@H](CCCNC(=N)N)C(=O)N[C@@H](CCC(=O)O)C(=O)N[C@@H](Cc1ccccc1)C(=O)N[C@H](C(N)=O)[C@@H](C)O)C(C)C)C(C)C)[C@@H](C)O` [JBS3193] (Ac-TGLVEAGWYDYNFDVYREFT-NH2), the IC50 at Protein S (setting [2]) was 2.5 nM.
`CC(=O)N[C@H](C(=O)NCC(=O)N[C@@H](CC(C)C)C(=O)N[C@H](C(=O)N[C@@H](CO)C(=O)N[C@@H](C)C(=O)NCC(=O)N[C@@H](Cc1c[nH]c2ccccc12)C(=O)N[C@@H](Cc1ccc(O)cc1)C(=O)N[C@@H](CC(=O)O)C(=O)N[C@@H](Cc1ccc(O)cc1)C(=O)N[C@@H](CC(N)=O)C(=O)N[C@@H](CC(N)=O)C(=O)N[C@@H](CC(=O)O)C(=O)N[C@H](C(=O)N[C@@H](Cc1ccc(O)cc1)C(=O)N[C@@H](CCCNC(=N)N)C(=O)N[C@@H](CCC(=O)O)C(=O)N[C@@H](Cc1ccccc1)C(=O)N[C@H](C(N)=O)[C@@H](C)O)[C@@H](C)O)C(C)C)[C@@H](C)O` [JBS3194] (Ac-TGLVSAGWYDYNNDTYREFT-NH2): the IC50 at Protein S came out at 1.8 nM.
On to `CC(=O)N[C@H](C(=O)NCC(=O)N[C@@H](CC(C)C)C(=O)N[C@H](C(=O)N[C@@H](CO)C(=O)N[C@@H](C)C(=O)NCC(=O)N[C@@H](Cc1c[nH]c2ccccc12)C(=O)N[C@@H](Cc1ccc(O)cc1)C(=O)N[C@@H](CC(=O)O)C(=O)N[C@@H](Cc1ccc(O)cc1)C(=O)N[C@@H](CC(N)=O)C(=O)N[C@@H](CC(N)=O)C(=O)N[C@@H](CC(=O)O)C(=O)N[C@H](C(=O)N[C@@H](Cc1ccc(O)cc1)C(=O)N[C@@H](CCCNC(=N)N)C(=O)N[C@@H](CCC(=O)O)C(=O)N[C@@H](Cc1ccccc1)C(=O)N[C@H](C(N)=O)[C@@H](C)O)C(C)C)C(C)C)[C@@H](C)O` [JBS3195] (Ac-TGLVSAGWYDYNNDVYREFT-NH2), for which the IC50 on Protein S (setting [2]) came out at 2 nM.
In the case of `CSCC[C@H](NC(=O)[C@H](Cc1ccc(O)cc1)NC(=O)[C@H](Cc1c[nH]cn1)NC(=O)[C@H](CC(=O)O)NC(=O)[C@H](CC(N)=O)NC(=O)[C@H](CC(N)=O)NC(=O)[C@H](Cc1ccc(O)cc1)NC(=O)[C@H](CC(=O)O)NC(=O)[C@H](Cc1ccc(O)cc1)NC(=O)[C@H](Cc1c[nH]c2ccccc12)NC(=O)CNC(=O)[C@H](C)NC(=O)[C@H](CO)NC(=O)[C@@H](NC(=O)[C@H](CC(C)C)NC(=O)CNC(=O)[C@@H](NC(C)=O)[C@@H](C)O)C(C)C)C(=O)N[C@@H](CCC(=O)O)C(=O)N[C@@H](Cc1ccccc1)C(=O)N[C@H](C(N)=O)[C@@H](C)O` [JBS3198] (Ac-TGLVSAGWYDYNNDHYMEFT-NH2), the IC50 on Protein S (setting [2]) is 2.5 nM.
Consider `CC(=O)N[C@H](C(=O)NCC(=O)N[C@@H](CC(C)C)C(=O)N[C@H](C(=O)N[C@@H](CO)C(=O)N[C@@H](C)C(=O)NCC(=O)N[C@@H](Cc1c[nH]c2ccccc12)C(=O)N[C@@H](Cc1ccc(O)cc1)C(=O)N[C@@H](CC(=O)O)C(=O)N[C@@H](Cc1ccc(O)cc1)C(=O)N[C@@H](CC(N)=O)C(=O)N[C@@H](Cc1ccccc1)C(=O)N[C@@H](CC(=O)O)C(=O)N[C@H](C(=O)N[C@@H](Cc1ccc(O)cc1)C(=O)N[C@@H](CCCNC(=N)N)C(=O)N[C@@H](CCC(=O)O)C(=O)N[C@@H](Cc1ccccc1)C(=O)N[C@H](C(N)=O)[C@@H](C)O)[C@@H](C)O)C(C)(C)C)[C@@H](C)O` [JBS3202, Ac-TGL-Tle-SAGWYDYNFDTYREFT-NH2] (Ac-TGL[Tle]SAGWYDYNFDTYREFT-NH2), for which the IC50 at Protein S (setting [2]) came out at 1.6 nM.

The EC50 is the concentration giving half of the maximal effect. Lower therefore signals higher potency in that assay. One may read the IC50 as the concentration that inhibits the measured activity by half.

For the origin of these results see patent US10124033B2, “Peptides and methods of use” (BAXALTA INCORPORATED, priority 2014, dated 2018).
